Results reported in paper PMC9769694, “Discovery of Two Inhibitors of the Type IV Pilus Assembly ATPase PilB as Potential Antivirulence Compounds” (Microbiology Spectrum, 2022).

Experiments:
Details in all cases: data not shown
CtPilB = CtPilB (Chloracidobacterium thermophilum, UniProt G2LDI3); experiment: Malachite green ATPase assay, dose response (benchtop); format: biochemical
Experimental: The full-length CtPilB and the CtPilBΔN variant (with the first 139 residues at the N terminus truncated) were purified as preciously described ([29]). The HTS was conducted using 384-well microplates (Greiner, cat no. 781101). Each microwell for the screen contained a 15-μL reaction mixture consisting of 75 nM CtPilB, 0.5 mM ATP, 20 μM of a library compound, and 2% DMSO in activity buffer (50 mM N-tris(hydroxymethyl)methyl-3-aminopropanesulfonic acid [TAPS], 50 mM Tris, 75 mM KCl, 50 mM sodium acetate, 5 mM MgCl2, 50 mM ZnCl2 [pH 8.7]) ([29]). Reaction mixtures were incubated at 55°C for 10 min and transferred to ice for 5 min to stop the enzymatic reaction. MG reagent (50 μL) was added to each well for color development. After a 15-minute incubation, 5 μL of 34% (wt/vol) sodium-citrate (MP Chemicals) was added and the plate was mixed by shaking ([28], [29]). Absorbance at 620 nm (A620) was measured using a SpectraMax M5 microplate reader at room temperature. The HTS was performed at the Virginia Tech Center for Drug Discovery (VTCDD) Screening Laboratory.
The effects of inhibitors on the ATPase activity of CtPilB and CtPilBΔN and the binding of MANT-ATP were determined as described previously ([28], [29]). Stock solutions were prepared by dissolving benserazide hydrochloride (Alfa Aesar) or levodopa (Spectrum Chemical Mfg. Corp.) in dimethyl sulfoxide (DMSO; Fisher Biotech). Next, 10× working stocks for given concentrations of an inhibitor were freshly prepared before their use in an experiment. GraphPad Prism v7.04 was used for curve fitting and Student’s t test was used for statistical analysis.

[1] = test system: A. nosocomialis twitching motility; experiment: Twitching motility, crystal violet stained twitching area; format: cell-based, Acinetobacter nosocomialis
From the text: The inhibitors may thus interact with conserved features of the PilB ATPase family. A. nosocomialis PilB ([19]), whose N terminus is not similar to the MshEN domain (data not shown), shares ~53% identity and ~74% homology with MxPilB and MC3PilB in the ATPase domain (Fig. S1). We analyzed whether benserazide and levodopa could impact the T4P-powered twitching motility ([19], [44]) of A. nosocomialis (Fig. 7), an opportunistic pathogen in the Acinetobacter calcoaceticus-Acinetobacter baumannii (ACB) complex ([45]). As shown in Fig. 7A and B and Fig. S7, benserazide and levodopa impede the twitching motility of WT A. nosocomialis in a concentration-dependent manner.
FIG 7 Benserazide and levodopa inhibit Acinetobacter nosocomialis twitching motility and biofilm formation. (A and B) Twitching motility is correlated with the twitching area (cm^2) of the A. nosocomialis wild-type (WT) strain in the presence of (A) benserazide or (B) levodopa, with the control (no inhibitor) normalized to 1. Data are from 3 independent experiments, each performed in triplicates and represented by dots of the same color. (C and D) Biofilms formed by A. nosocomialis with (C) benserazide or (D) levodopa were analyzed by a microplate assay with crystal violet (CV) staining. Results from three independent experiments, each performed in quadruplicates and represented by dots of the same color, are shown. Horizontal lines indicate overall averages, and asterisks (*) signify that values at the indicated concentration are statistically different from those of the control (P < 0.05).
The A. nosocomialis wild-type M2 strain and an isogenic pilA deletion (ΔpilA) mutant ([19], [46]) were used in this study. They were grown and maintained using MacConkey medium at 37°C. The twitching motility of the M2 strain of A. nosocomialis was analyzed with 1% crystal violet (CV) for staining, and twitching areas were used as measures of motility as previously described ([46]). These motility assays were conducted in triplicates and the stained area of the ΔpilA mutant was subtracted from that of the WT for data analysis. A. nosocomialis biofilm formation was analyzed using microplates and CV staining as previously described ([53], [54]). The biofilm assays were conducted in quadruplicate in MacConkey medium with tissue culture-treated microtiter plates (Falcon). CV absorbance (Acv) was measured at 590 nm using Infinite M200 PRO in clear polystyrene 96-well microplates (ExtraGene). Absorbance for each well was read 16 times using Multiple Reads with the average as the final Acv value. Readings from control wells without bacteria were subtracted for normalization. Statistical differences were determined using a Student’s t test.

M. xanthus S motility = experiment: T4P-mediated social (S) motility, colony expansion on soft agar; format: cell-based, Myxococcus xanthus
From the text: Benserazide and levodopa were examined to determine whether they could impact the T4P assembly function of PilB in vivo using M. xanthus as the model bacterium ([28]). […] Three M. xanthus strains were used for these experiments. Strain DK10416 lacks S motility because it is a pilB deletion (ΔpilB) mutant ([40]). The other two strains both assemble T4P and are proficient in S motility ([30]). Strain YZ1674 produces the wild-type (WT) M. xanthus PilB (MxPilB). YZ2232 expresses MC3PilB, a PilB chimera with the N terminus of MxPilB fused to the C-terminal ATPase domain of CtPilB ([30]). The PilB ATPase domains of MxPilB and MC3PilB are highly similar, with 66% shared identity and 77% similarity (Fig. S1).
FIG 5 Benserazide and levodopa inhibit T4P-mediated social (S) motility in Myxococcus xanthus. Expansion rates (cm/day) of the MxPilB (YZ1674) and the MC3PilB (YZ2232) strains on soft agar plates by S motility in the presence of (A and C) benserazide and (B and D) levodopa after 5 days of incubation. Results from three independent experiments are shown, each performed in quintuplicates with data points represented by dots of the same color. Horizontal black lines represent overall averages. Expansion rates were normalized by subtracting that of the ΔpilB strain, which has no S motility (also see Fig. S4). Asterisks (*) indicate that the values at the indicated concentrations are statistically different (P < 0.05) from those of the no-inhibitor control.
M. xanthus was grown and maintained at 32°C in Casitone-yeast extract (CYE) medium ([49]). Motility assays were conducted with strains DK10416 (ΔpilB) ([40]), YZ1674 (ΔpilB att::MxpilB) ([50]), and YZ2232 (ΔpilB att::MC3pilB) ([30], [51]) as previously described ([28]). One modification was that 10% India ink was included in the cell suspension to mark the initial spot on agar plates. All experiments were conducted in quintuplicates and the diameter of the initial spot, as marked by India ink, was subtracted for data analysis.

Sequence of CtPilB (G2LDI3 entry or part of it): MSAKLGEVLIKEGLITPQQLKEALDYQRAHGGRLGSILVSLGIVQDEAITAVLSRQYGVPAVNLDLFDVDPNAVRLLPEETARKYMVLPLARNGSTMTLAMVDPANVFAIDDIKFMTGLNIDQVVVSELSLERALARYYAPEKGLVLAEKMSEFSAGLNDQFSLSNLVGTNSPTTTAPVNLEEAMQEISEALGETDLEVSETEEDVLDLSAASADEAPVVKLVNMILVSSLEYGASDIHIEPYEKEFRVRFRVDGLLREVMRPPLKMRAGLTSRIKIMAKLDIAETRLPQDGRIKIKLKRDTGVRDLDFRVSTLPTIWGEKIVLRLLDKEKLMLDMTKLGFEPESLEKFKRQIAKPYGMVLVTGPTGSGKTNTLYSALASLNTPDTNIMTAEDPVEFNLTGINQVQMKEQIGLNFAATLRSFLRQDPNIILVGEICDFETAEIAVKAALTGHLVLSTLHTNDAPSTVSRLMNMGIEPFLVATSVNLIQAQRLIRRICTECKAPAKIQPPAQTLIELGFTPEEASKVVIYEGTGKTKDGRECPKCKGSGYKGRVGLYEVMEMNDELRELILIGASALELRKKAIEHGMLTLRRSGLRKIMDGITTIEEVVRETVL

N[C@@H](Cc1ccccc1)C(=O)O [phenylalanine]
no inhibitory effect: inhibitory effect on CtPilB in vitro (CtPilB) | inhibitory effect on motility of A. nosocomialis in vivo [1] | inhibitory effect on motility of M. xanthus in vivo (M. xanthus S motility)

N[C@@H](Cc1ccc(O)cc1)C(=O)O [tyrosine, 4-monohydroxyphenylalanine]
no inhibitory effect: inhibitory effect on CtPilB in vitro (CtPilB) | inhibitory effect on motility of A. nosocomialis in vivo [1] | inhibitory effect on motility of M. xanthus in vivo (M. xanthus S motility)
